Source: US5700830A, “Use of nitric oxide-releasing agents for reducing metastasis risk” (The United States of America as represented by the …, priority 1994, dated 1997)
Counter-ions that a name gives are not always drawn. One block for each compound: values may come before it.

What was measured:
DNA synthesis = settings: cited from earlier work
[1] = decomposition half-life and nitric oxide release in aqueous buffer; format: physicochemical; settings: pH 7 and 25° C.; for half-life: aqueous buffer
Method: The resulting gel was treated with a few drops of methanol until a homogeneous solution was obtained. The solution was transferred into a micro-Parr bottle and bubbled with nitrogen for 5 min, followed by exposure to 40 psi of NO for 72 h.
The system was degassed and charged with 40 psi of nitric oxide.
The system was evacuated, charged with 40 psi of nitric oxide and kept at 25° C. for 48 h. The white crystalline product was collected by filtration and washed with cold methanol as well as with copious amounts of ether. […] This measurement was based on the loss of the 252-nm chromophore in the ultraviolet spectrum.

[2] = test system: RPMI 1846 melanotic melanoma cells adhering to rat mesenteric postcapillary venules; assay: adhesion of melanoma tumor cells to isolated postcapillary venules; format: cell-based, Syrian hamster (tumor cells); Sprague-Dawley rat (vessels); settings: 1 mM DETA/NO for 30 min, FIG. 1
Method: RPMI 1846, a melanotic melanoma of a Syrian hamster, was obtained from the American Type Culture Collection, Rockville, Md., and grown in McCoy's 5A medium (GIBCO, Grand Island, N.Y.) supplemented with 20% fetal bovine serum (GIBCO, Grand Island, N.Y.) at 37° C. in a humidified 5% CO2 atmosphere. […]
A segment of bowel and attached mesentery was excised and placed in a dissecting chamber containing ice-cold, pH 7.4 PSS (same as APSS but without added serum). […] A television camera mounted on the microscope was used to project the image onto a television monitor and the images were recorded using a videocassette recorder. […]
After a 30-min stabilization period, the vessel was perfused with tumor cell suspension. […] The number of cells sitting on the microvessel was observed and recorded. […] Five minutes later, the number of tumor cells remaining adherent to the vessel wall was counted and recorded. The percentage of adherent cells was calculated by dividing the number of tumor cells remaining adherent to the vessel wall after flow was resumed for 5 minutes by the total number of cells setting on the vessel wall when flow was interrupted. […]

[3] = via exhaustion of the relevant enzyme/cofactor system; cited from earlier work
[4] = cited from earlier work

Compound: CC(=O)N[C@H](C(=O)O)C(C)(C)SN=O (racemic) [S-nitroso-N-acetylpenicillamine]
inhibition of DNA synthesis (DNA synthesis): effective at inhibiting DNA synthesis

half-life [1]: 5 min
Compound: CCOC(=O)N1CCN([N+]([O-])=NO)CC1 [1-(4-carbethoxypiperazin-1-yl)-1-oxo-2-hydroxydiazene, sodium salt]

Compound: NCCN(CCN)[N+]([O-])=NO [DETA/NO]
effect on LPS-enhanced tumor cell adhesion to postcapillary venules ([2]; LPS-treated venules): completely blocked the enhancing effect of LPS on tumor cell adhesion
effect on tumor cell adhesion to untreated venules ([2]; untreated venules, P<0.05): decreased tumor cell adhesion to untreated venules

half-life [1]: 6.9 min
NO produced per mole of test agent [1]: 1.72 moles of NO per mole of test agent
Compound: CSCC[C@H](NC(C)=O)C(=O)N1CCN([N+]([O-])=NO)CC1 [Example V, 1-[4-(N-acetyl-L-methionyl)piperazin-1-yl]-1-oxo-2-hydroxydiazene, sodium salt]

Compound: O=[N+]([O-])OCC(CO[N+](=O)[O-])O[N+](=O)[O-] [glyceryl trinitrate]
tolerance [3]: tolerance to glyceryl trinitrate can develop

Compound: Nitric oxide
solubility in aqueous media [4]: limited solubility in aqueous media
